The values that follow come from patent US11236129B2, “IL-17A binding peptides and medical uses thereof” (Dompe' Farmaceutici S.P.A., priority 2018, dated 2022).

The structures appear in SMILES notation. Where two headings read alike, the source gives them in different places. Residues, ends and D or L forms follow the SMILES beside them.

The nature of data set [1]: Isoelectric point, log D and log P (SiriusT3). The class given is physicochemical. The conditions noted are these: for IP (isoelectric point): 25±1° C., 0.15 M KCl. The method, then: The main physicochemical properties (Isoelectric point (IP), log D (7.4) and log P) of the peptides of Table 8 below were determined by using the SiriusT3 apparatus (Sirius Analytical Instruments Ltd., East Sussex, UK) equipped with an Ag/AgCl double junction reference pH electrode, a Sirius D-PAS spectrometer and a turbidity sensing device. […] An overhead stirrer was used and a temperature probe (Peltier controller) monitored the temperature during the course of the titration. The titration experiments were conducted in 0.15 M KCl Ionic Strength Adjusted solution (ISA water) under a nitrogen atmosphere at a temperature of 25±1° C. All tests were performed using standardized 0.5 M KOH and 0.5 M HCl as titration reagents, for the partition coefficient tests a saturated Octanol in ISA water (5% of ISA water) was used as partition solvent. The pKas were determined by potentiometric method by pH-metric titration. The powder (around 0.5 mg) was dissolved in 1.5 ml of ISA water and the titration was performed in triplicate in the pH range 2.0−12.0.

Data set [2] is classed as physicochemical. The following applies: pH 7.8. How it is done: Each lyophilized peptide was weighed in an amber vial. A calculated volume of phosphate buffered solution at pH 7.8 was added in order to directly obtain 10 mM Stock Solutions. The recovered suspensions were stirred for 30 minutes by orbital shaker incubator at 37° C. Subsequent dilutions were performed to obtain the more diluted stock solutions for the less soluble compounds.
In order to evaluate the stability and the solubility, all the stock solutions were stored at 25° C. The title was evaluated by UHPLC-MS analysis in comparison with the standard solutions, at 3 time points: T0, 3 days, 1 week.
The chromatographic profile was evaluated for the quantitative assay while the MS spectra were detected as support in the stability studies.
Each peptide was weighed and directly diluted at 100 μM with the phosphate buffer at pH 7.8. The solutions were stirred for 5 minutes by vortex and heated at 37° C. for 20 minutes. The obtained standard solution was stored at 25° C. in the dark under controlled temperature.
A portion of the stock solutions was collected in an amber vial and diluted to 100 μM by phosphate buffer at pH 7.8 (dilution factor, 1:100).
Reversed-phase UHPLC was performed operating at a flow rate of 0.3 ml/min with a Luna Omega Polar C18 column ([…] 1.6 μm, 2.1×100 mm). Solvent A was 0.5% Formic Acid in water and solvent B was 0.5% Formic Acid in acetonitrile. First, samples were loaded onto the column and washed isocratically at 10% B for 3 min. Then, a gradient of 10-95% B was run over 22 min, held at 95% for 2 min, and then decreased to 10% over 1 min and held, for the pressure stabilization, for 5 min. UV Absorption was monitored by DAD (220-400 nm). ESI-MS ion trap was used for the monitoring of TIC.

Data set [3] concerns the target IL-17RA/IL17RC dimerization induced by IL-17A (Homo sapiens, UniProt Q16552). Put plainly: IL-17RA/IL17RC dimerization assay in response to IL-17A (PathHunter Cytokine Receptor Assay). The class given is cell-based. The conditions noted are these: IL-17A at EC80; read-out: IC50 in IL-17RA/IL7RC dimerization assay. The method, boiled down: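 PathHunter cells with IL-17RA and IL-17RC tagged for β-galactosidase complementation were preincubated 60 min with peptide (1% vehicle). IL-17A was then added at EC80 for 6–16 h at 37 °C, and chemiluminescence was read. Inhibition is relative to the EC80 and vehicle controls.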

[4] abbreviates: octanol/ISA water, read-out: logP.
Setting [5] is: pH 7.4, pH 7.4, octanol/ISA water, read-out: Log D (7.4).

Sequence of IL-17RA/IL17RC dimerization induced by IL-17A (Q16552 24-155): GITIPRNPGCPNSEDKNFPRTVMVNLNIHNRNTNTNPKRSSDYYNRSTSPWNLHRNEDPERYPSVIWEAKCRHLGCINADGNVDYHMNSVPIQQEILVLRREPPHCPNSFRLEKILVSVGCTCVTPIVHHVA

For `CC[C@H](C)[C@H](NC(C)=O)C(=O)N[C@@H](Cc1c[nH]cn1)C(=O)N[C@H](C(=O)N[C@H](C(=O)N[C@H](C(=O)N1CCC[C@H]1C(=O)N[C@@H](C)C(=O)N[C@@H](CC(=O)O)C(=O)N[C@@H](CC(C)C)C(=O)N[C@@H](Cc1c[nH]c2ccccc12)C(=O)N[C@@H](CC(=O)O)C(=O)N[C@@H](Cc1c[nH]c2ccccc12)C(=O)N[C@H](C(=O)N[C@@H](CCC(=O)O)C(=O)N[C@@H](CCC(=O)O)C(N)=O)C(C)C)[C@@H](C)CC)[C@@H](C)O)C(C)C` [SEQ ID NO: 15] (Ac-IHVTIPADLWDWVEE-NH2), in data set [1], the “IP (isoelectric point)” value came to 3.51. Also, in data set [1] (logP), the logP (usually the decadic logarithm of the partition coefficient of the neutral form, usually between octanol and water) was 1.66. In addition, in data set [1] (pH 7.4, Log D (7.4)), the logD amounted to 1.88. Moreover, the solubility (commonly the dissolved amount per volume that the medium holds) in data set [2] was at least 0.05 mM. Moreover, the IC50 in data set [3] is under 400 nM.
Regarding `CC[C@H](C)[C@H](NC(=O)[C@H](Cc1c[nH]c2ccccc12)NC(=O)[C@H](CCC(=O)O)NC(=O)[C@H](Cc1ccc(O)cc1)NC(=O)[C@H](CC(C)C)NC(=O)[C@H](CC(=O)O)NC(=O)[C@H](C)NC(=O)[C@@H]1CCCN1C(=O)[C@@H](NC(=O)[C@@H](NC(=O)[C@@H](NC(=O)[C@H](CCSC)NC(=O)[C@@H](NC(C)=O)C(C)C)C(C)C)[C@@H](C)O)[C@@H](C)CC)C(=O)N[C@@H](CC(N)=O)C(=O)N[C@@H](CCCCN)C(N)=O` [SEQ ID NO: 16] (Ac-VMVTIPADLYEWINK-NH2), the “IP (isoelectric point)” value in data set [1] worked out at 5.19. For the same molecule, the lipophilicity (logP) in data set [1] (setting [4]) stood at 0.13. The logD in data set [1] (setting [5]) worked out at 0.24. For the same molecule, the solubility in data set [2] was over 10 mM. For the same molecule, the IC50 in data set [3] was under 400 nM.
In the same order, the values of `CC[C@H](C)[C@H](NC(=O)[C@H](Cc1c[nH]c2ccccc12)NC(=O)[C@H](CCC(=O)O)NC(=O)[C@H](Cc1ccc(O)cc1)NC(=O)[C@H](CC(C)C)NC(=O)[C@H](CC(=O)O)NC(=O)[C@H](C)NC(=O)[C@@H]1CCCN1C(=O)[C@@H](NC(=O)[C@@H](NC(=O)[C@@H](NC(=O)[C@H](CCSC)NC(=O)[C@@H](NC(C)=O)C(C)C)C(C)C)[C@@H](C)O)[C@@H](C)CC)C(=O)N[C@@H](CCCNC(=N)N)C(=O)N[C@@H](CCCNC(=N)N)C(N)=O` [SEQ ID NO: 17] (Ac-VMVTIPADLYEWIRR-NH2) are 8.05, -0.44, -3.68, over 10 mM and under 400 nM.
As for `CC[C@H](C)[C@H](NC(=O)[C@H](Cc1c[nH]c2ccccc12)NC(=O)[C@H](CCC(=O)O)NC(=O)[C@H](Cc1ccc(O)cc1)NC(=O)[C@H](CC(C)C)NC(=O)[C@H](CC(=O)O)NC(=O)[C@H](C)NC(=O)[C@@H]1CCCN1C(=O)[C@@H](NC(=O)[C@@H](NC(=O)[C@@H](NC(=O)[C@H](CCSC)NC(=O)[C@@H](NC(C)=O)C(C)C)C(C)C)[C@@H](C)O)[C@@H](C)CC)C(=O)N[C@@H](CCC(=O)O)C(=O)N[C@@H](CCC(=O)O)C(=O)N[C@@H](CCCNC(=N)N)C(=O)N[C@@H](CCCNC(=N)N)C(=O)N[C@@H](CCCNC(=N)N)C(=O)N[C@@H](CCCNC(=N)N)C(=O)N[C@@H](CCCNC(=N)N)C(=O)N[C@@H](CCCNC(=N)N)C(N)=O` [SEQ ID NO: 19] (Ac-VMVTIPADLYEWIEERRRRRR-NH2), in data set [1], the “IP (isoelectric point)” value amounted to 12.49. Besides, in data set [1] (setting [5]), the logD is -3.94. This molecule also gave a solubility in data set [2] of at least 0.1 mM. In addition, in data set [3], the IC50 is under 1000 nM.
For `CC[C@H](C)[C@H](NC(=O)[C@H](Cc1c[nH]c2ccccc12)NC(=O)[C@H](CCC(=O)O)NC(=O)[C@H](Cc1ccc(O)cc1)NC(=O)[C@H](CC(C)C)NC(=O)[C@H](CC(=O)O)NC(=O)[C@H](C)NC(=O)[C@@H]1CCCN1C(=O)[C@@H](NC(=O)[C@@H](NC(=O)[C@@H](NC(=O)[C@H](CCSC)NC(=O)[C@@H](NC(C)=O)C(C)C)C(C)C)[C@@H](C)O)[C@@H](C)CC)C(=O)N[C@@H](CCC(=O)O)C(=O)N[C@@H](CCC(=O)O)C(=O)N[C@@H](CCCNC(=N)N)C(=O)N[C@@H](CCCNC(=N)N)C(=O)N[C@@H](CCCNC(=N)N)C(N)=O` [SEQ ID NO: 20] (Ac-VMVTIPADLYEWIEERRR-NH2) the same measures were 11.29, -3.69, at least 0.1 mM and under 1000 nM.
Take `CC[C@H](C)[C@H](NC(=O)[C@H](Cc1c[nH]c2ccccc12)NC(=O)[C@H](CCC(=O)O)NC(=O)[C@H](Cc1ccc(O)cc1)NC(=O)[C@H](CC(C)C)NC(=O)[C@H](CC(=O)O)NC(=O)[C@H](C)NC(=O)[C@@H]1CCCN1C(=O)[C@@H](NC(=O)[C@@H](NC(=O)[C@@H](NC(=O)[C@H](CCSC)NC(=O)[C@@H](NC(C)=O)C(C)C)C(C)C)[C@@H](C)O)[C@@H](C)CC)C(=O)N[C@@H](CCC(=O)O)C(=O)N[C@@H](CCC(=O)O)C(=O)N[C@@H](C)C(=O)N[C@@H](CCCNC(=N)N)C(=O)N[C@@H](CCCCN)C(=O)N[C@@H](CCCCN)C(=O)N[C@@H](C)C(=O)N[C@@H](C)C(=O)N[C@@H](CCCCN)C(=O)N[C@@H](C)C(N)=O` [SEQ ID NO: 21] (Ac-VMVTIPADLYEWIEEARKKAAKA-NH2): in data set [1], the “IP (isoelectric point)” value is recorded as 10.6. For the same molecule, the log partition coefficient (logP) in data set [1] (setting [4]) is -4.99. Also, the logD in data set [1] (setting [5]) is -0.55. The solubility in data set [2] was over 10 mM. For the same molecule, in data set [3], the IC50 was under 1000 nM.
Regarding `CC[C@H](C)[C@H](NC(=O)[C@H](Cc1c[nH]c2ccccc12)NC(=O)[C@H](CCC(=O)O)NC(=O)[C@H](Cc1ccc(O)cc1)NC(=O)[C@H](CC(C)C)NC(=O)[C@H](CC(=O)O)NC(=O)[C@H](C)NC(=O)[C@@H]1CCCN1C(=O)[C@@H](NC(=O)[C@@H](NC(=O)[C@@H](NC(=O)[C@H](CCSC)NC(=O)[C@@H](NC(C)=O)C(C)C)C(C)C)[C@@H](C)O)[C@@H](C)CC)C(=O)N[C@@H](CCC(=O)O)C(=O)N[C@@H](CCC(=O)O)C(=O)NCC(=O)NCC(=O)N[C@H](C(=O)N[C@@H](Cc1c[nH]c2ccccc12)C(=O)N[C@@H](Cc1c[nH]c2ccccc12)C(=O)N[C@H](C(=O)N[C@@H](CCC(=O)O)C(=O)N[C@@H](Cc1c[nH]c2ccccc12)C(=O)N[C@@H](CO)C(=O)N[C@@H](CCC(N)=O)C(N)=O)[C@@H](C)O)[C@@H](C)O` [SEQ ID NO: 22] (Ac-VMVTIPADLYEWIEEGGTWWTEWSQ-NH2), the “IP (isoelectric point)” value in data set [1] is reported as 4.26. The logP in data set [1] (setting [4]) came to 0.4. Moreover, the logD in data set [1] (setting [5]) is -3.18. In addition, in data set [2], the solubility was over 10 mM. Besides, the IC50 in data set [3] is under 1000 nM.
As to `CC[C@H](C)[C@H](NC(=O)[C@H](Cc1c[nH]c2ccccc12)NC(=O)[C@H](CCC(=O)O)NC(=O)[C@H](Cc1ccc(O)cc1)NC(=O)[C@H](CC(C)C)NC(=O)[C@H](CC(=O)O)NC(=O)[C@H](C)NC(=O)[C@@H]1CCCN1C(=O)[C@@H](NC(=O)[C@@H](NC(=O)[C@@H](NC(=O)[C@H](CCSC)NC(=O)[C@@H](NC(C)=O)C(C)C)C(C)C)[C@@H](C)O)[C@@H](C)CC)C(=O)N[C@@H](CCC(=O)O)C(=O)N[C@@H](CCC(=O)O)C(=O)N[C@H](C(=O)N[C@@H](Cc1c[nH]c2ccccc12)C(=O)N[C@@H](Cc1c[nH]c2ccccc12)C(=O)N[C@@H](CCC(=O)O)C(=O)N[C@H](C(=O)N[C@@H](Cc1c[nH]c2ccccc12)C(=O)N[C@@H](Cc1c[nH]c2ccccc12)C(N)=O)[C@@H](C)O)[C@@H](C)O` [SEQ ID NO: 23] (Ac-VMVTIPADLYEWIEETWWETWW-NH2), the “IP (isoelectric point)” value in data set [1] turned out to be 4.26. Also, the logP in data set [1] (setting [4]) worked out at 1.01. The logD in data set [1] (setting [5]) is -2.24. Further, the solubility in data set [2] is at least 0.05 mM. For the same molecule, in data set [3], the IC50 is under 1000 nM.
